The record followed here is PMC3758437 (Kidney international, 2013).

Data set [1] has as its system plasma proteins. Format: in vitro ADME. The following applies: human, plasma (ultrafiltration).
The conditions of data set [2]: normal subjects; LC/MS/MS assay; mean±sd.
Data set [3] has as its system plasma proteins. Nature of the data set: Free fraction by stable isotope dilution LC/MS/MS assay. To be noted: human, plasma (ultrafiltration).

Counter-ions that a name gives are not always drawn. Like-named read-outs stand apart in the source and are kept apart here.

As for `Cn1c(=O)c2c([nH]c(=O)n2C)n(C)c1=O` [1,3,7-Trimethyluric acid], the free fraction (fraction unbound) in data set [1] was found to be 0.09 ± 0.03.

In turn, `Cn1c(=O)[nH]c2[nH]c(=O)n(C)c2c1=O` [1,7-Dimethyluric acid] came in with a fraction unbound in data set [1] of 0.39 ± 0.3.

For the compound `O=C(O)CNC(=O)c1ccco1` [2-Furoylglycine], the fraction unbound in data set [1] amounted to 0.49.

For the compound `O=C(O)CCCCC(=O)O` [Adipic acid], the fraction unbound in data set [1] was 0.04 ± 0.01.

Regarding `CN1CC(=O)NC1=N` [Creatinine], the “Plasma Free Concentration” value in data set [2] was 74 ± 13 µM.

For the compound `O=C(O)CNC(=O)c1ccccc1` [Hippurate], the fraction unbound was 0.27 ± 0.05 in data set [1] and 0.41 ± 0.02 in data set [3]. The “Plasma Free Concentration” value in data set [2] came to 1.5 ± 0.9 µM.

With `O=S(=O)(O)Oc1c[nH]c2ccccc12` [Indoxyl sulfate], the fraction unbound in data set [1] was 0.02 ± 0.01; in data set [3] it was 0.027 ± 0.004. Besides, the “Plasma Free Concentration” value in data set [2] is 0.13 ± 0.05 µM.

Turning to `CC(CC(=O)O)C(=O)O` (stereo not drawn) [Methylsuccinic acid], the fraction unbound in data set [1] was 0.11 ± 0.04.

`O=C(O)CCCCCCC(=O)O` [Suberic acid] returned a fraction unbound in data set [1] of 0.07 ± 0.02.

Take `NC(N)=O` [Urea]: the “Plasma Free Concentration” value in data set [2] is given as 2.4 ± 0.6×10^3 μM.

For `Cc1ccc(OS(=O)(=O)O)cc1` [p-Cresol sulfate], in data set [2], the “Plasma Free Concentration” value is 0.46 ± 0.26 µM.
